Assays:
[1] = molecular target: T1, Human HDAC1 (Homo sapiens, UniProt Q13547); assay: HDAC1 biochemical assay, AMC-labeled peptide substrate; conditions: read-out: HDAC Isoform IC50 (nM) 1
T1 construct: full length with C-terminal His-tag and C-terminal FLAG-tag; His (C); FLAG (C); host or cells: baculovirus expression system
Description: (§1) Activity against all zinc-dependent HDACs 1 to 11 was assessed by using an acetylated AMC-labeled peptide substrate. The substrate RHKK(Ac)AMC was used for HDAC1, HDAC2, HDAC3, HDAC6 and HDAC10; the substrate used for HDAC8 was RHK(Ac)K(Ac)AMC. Activity against the class IIa HDACs (HDAC4, 5, 7, 9) and HDAC11 was determined using a class IIa-specific substrate, BOC-Lys(trifluoroacetyl)-AMC (“Trifluoroacetyl Lysine”; see Lahm et al, 2007, PNAS, 104, 17335-17340). All assays were based on the AMC-labeled substrate and developer combination.
(§2) The protocol involved a two-step reaction: first, the substrate with the acetylated lysine side chain is incubated with a sample containing HDAC activity, to produce the deacetylated products, which are then digested in the second step by the addition of developer to produce the fluorescent signal proportional to the amount of deacetylated substrates.
Human HDAC1 (GenBank Accession No. NM_004964), full length with C-terminal His-tag and C-terminal FLAG-tag, MW=56 kDa, expressed in baculovirus expression system.
(§3) Assay Buffer: 50 mM Tris-HCl, pH8.0, 137 mM NaCl, 2.7 mM KCl, 1 mM MgC2. Before use, 1 mg/mL BSA and DMSO are added.
HDAC1: 0.3 ng/ul HDAC1 and 50 μM HDAC substrate are in the reaction buffer with 1% DMSO final. Incubate for 1 hour at 30° C.
(§4) Stage 1: Deacetylation of substrate by incubation of HDAC enzymes with compounds
(§5) Stage 2: Development by addition of Developer to digest the deacetylated substrate, and generate the fluorescent colour; Detection: 360/460 Ex/Em

[2] = molecular target: T2, Human HDAC4 (Homo sapiens, UniProt P56524); assay: HDAC4 biochemical assay, class IIa-specific substrate; conditions: read-out: HDAC Isoform IC50 (nM) 4
T2 construct: amino acids 627-1085 with N-terminal GST tag; GST (N); host or cells: baculovirus expression system
Description: as §1, §2
Human HDAC4 (GenBank Accession No. NM_006037), amino acids 627-1085 with N-terminal GST tag, MW=75.2 kDa, expressed in baculovirus expression system.
as §3
(§6) For class IIa HDACs, assay buffer is the same.
HDAC4: 0.004 ng/ul HDAC4 and 50 μM Class IIa HDAC substrate are in the reaction buffer with 1% DMSO final. Incubate for 30 minutes at room temperature.
as §4, §5

[3] = molecular target: T3, Human HDAC5 (Homo sapiens, UniProt Q9UQL6); assay: HDAC5 biochemical assay, class IIa-specific substrate; conditions: read-out: HDAC Isoform IC50 (nM) 5
T3 construct: full length with C-terminal His tag, MW=51.1 kDa; His (C); host or cells: baculovirus expression system
Description: as §1, §2
Human HDAC5 (GenBank Accession No. NM_005474), full length with C-terminal His tag, MW=51.1 kDa, expressed in baculovirus expression system.
as §3, §6
HDAC5: 0.05 ng/ul HDAC5 and 50 μM Class IIa HDAC substrate are in the reaction buffer with 1% DMSO final. Incubate for 30 minutes at room temperature.
as §4, §5

[4] = molecular target: T4, Recombinant human HDAC6 (Homo sapiens, UniProt Q9UBN7); assay: HDAC6 biochemical assay, AMC-labeled peptide substrate; conditions: HDAC6; read-out: HDAC Isoform IC50 (nM) 6
T4 construct: full length, MW=159 kDa; GST (N); host or cells: Sf9 insect cells (baculovirus)
T4 sequence (Q9UBN7 1-1215): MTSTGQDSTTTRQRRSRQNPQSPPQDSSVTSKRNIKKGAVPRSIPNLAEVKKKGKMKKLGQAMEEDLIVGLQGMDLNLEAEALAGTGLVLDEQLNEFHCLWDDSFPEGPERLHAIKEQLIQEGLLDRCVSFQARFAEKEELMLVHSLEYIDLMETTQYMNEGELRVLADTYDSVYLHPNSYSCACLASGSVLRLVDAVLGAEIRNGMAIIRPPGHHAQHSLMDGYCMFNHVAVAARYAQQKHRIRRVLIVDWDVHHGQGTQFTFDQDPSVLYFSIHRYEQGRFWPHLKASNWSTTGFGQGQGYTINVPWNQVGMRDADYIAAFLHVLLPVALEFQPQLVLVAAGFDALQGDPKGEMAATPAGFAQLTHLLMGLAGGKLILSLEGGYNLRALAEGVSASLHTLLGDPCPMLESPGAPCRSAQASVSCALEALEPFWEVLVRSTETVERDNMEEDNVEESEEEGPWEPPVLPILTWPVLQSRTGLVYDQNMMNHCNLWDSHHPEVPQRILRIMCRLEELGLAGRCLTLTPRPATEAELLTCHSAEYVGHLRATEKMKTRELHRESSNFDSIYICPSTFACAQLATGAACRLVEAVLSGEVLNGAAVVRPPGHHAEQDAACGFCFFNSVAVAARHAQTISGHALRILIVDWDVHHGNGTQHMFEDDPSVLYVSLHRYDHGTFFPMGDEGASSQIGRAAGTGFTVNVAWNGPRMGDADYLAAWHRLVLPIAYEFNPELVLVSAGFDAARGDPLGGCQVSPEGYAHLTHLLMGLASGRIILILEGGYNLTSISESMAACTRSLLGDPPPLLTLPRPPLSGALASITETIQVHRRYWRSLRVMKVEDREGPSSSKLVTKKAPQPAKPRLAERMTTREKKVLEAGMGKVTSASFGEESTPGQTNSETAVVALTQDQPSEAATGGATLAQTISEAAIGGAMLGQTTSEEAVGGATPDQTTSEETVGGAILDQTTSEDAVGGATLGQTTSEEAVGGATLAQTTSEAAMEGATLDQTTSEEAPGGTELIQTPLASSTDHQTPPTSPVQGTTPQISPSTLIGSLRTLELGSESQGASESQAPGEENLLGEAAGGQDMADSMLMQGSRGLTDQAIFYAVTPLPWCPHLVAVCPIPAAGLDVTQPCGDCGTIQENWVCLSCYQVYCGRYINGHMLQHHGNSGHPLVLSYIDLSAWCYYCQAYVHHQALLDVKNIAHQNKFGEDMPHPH
Description: as §1, §2
Recombinant human HDAC6 (GenBank Accession No. BC069243), full length, MW=159 kDa, was expressed by baculovirus in Sf9 insect cells using an N-terminal GST tag.
as §3
HDAC6: 0.3 ng/ul HDAC6 and 50 μM HDAC substrate are in the reaction buffer with 1% DMSO final. Incubate for 1 hours at 30° C.
as §4, §5

[5] = molecular target: T5, Human HDAC7 (Homo sapiens, UniProt Q8WUI4); assay: HDAC7 biochemical assay, class IIa-specific substrate; conditions: read-out: HDAC Isoform IC50 (nM) 7
T5 construct: (a.a. 518-end) with N-terminal GST tag; GST (N); host or cells: baculovirus expression system
T5 sequence (Q8WUI4 518-952 limits assumed): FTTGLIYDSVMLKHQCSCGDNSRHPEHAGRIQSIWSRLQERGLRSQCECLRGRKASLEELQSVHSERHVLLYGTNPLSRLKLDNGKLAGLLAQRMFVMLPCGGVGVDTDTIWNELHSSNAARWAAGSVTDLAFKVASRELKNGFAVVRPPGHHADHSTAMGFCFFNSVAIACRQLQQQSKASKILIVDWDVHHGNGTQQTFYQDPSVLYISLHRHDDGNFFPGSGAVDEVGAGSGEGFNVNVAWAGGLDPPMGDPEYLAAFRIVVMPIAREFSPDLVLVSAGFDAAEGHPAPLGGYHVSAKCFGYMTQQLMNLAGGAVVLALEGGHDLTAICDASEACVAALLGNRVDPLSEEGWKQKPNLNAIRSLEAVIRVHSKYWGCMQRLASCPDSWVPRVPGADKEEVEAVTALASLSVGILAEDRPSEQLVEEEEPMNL
Description: as §1, §2
Human HDAC7 (GenBank Accession No. AY302468), (a.a. 518-end) with N-terminal GST tag, MW=78 kDa, expressed in baculovirus expression system.
as §3, §6
HDAC7: 0.001 ng/ul HDAC7 and 50 μM Class IIa HDAC substrate are in the reaction buffer with 1% DMSO final. Incubate for 30 minutes at room temperature.
as §4, §5

[6] = molecular target: T6, Human HDAC9 (Homo sapiens, UniProt Q9UKV0); assay: HDAC9 biochemical assay, class IIa-specific substrate; conditions: read-out: HDAC Isoform IC50 (nM) 9
T6 construct: amino acids 604-1066 with C-terminal His tag; His (C); host or cells: baculovirus expression system
Description: as §1, §2
Human HDAC9 (GenBank Accession No. NM_178423), amino acids 604-1066 with C-terminal His tag, MW=50.7 kDa, expressed in baculovirus expression system.
as §3, §6
HDAC9: 0.06 ng/ul HDAC9 and 50 μM Class IIa HDAC substrate are in the reaction buffer with 1% DMSO final. Incubate for 30 minutes at room temperature.
as §4, §5

T3 sequence (Q9UQL6 656-1122 limits assumed): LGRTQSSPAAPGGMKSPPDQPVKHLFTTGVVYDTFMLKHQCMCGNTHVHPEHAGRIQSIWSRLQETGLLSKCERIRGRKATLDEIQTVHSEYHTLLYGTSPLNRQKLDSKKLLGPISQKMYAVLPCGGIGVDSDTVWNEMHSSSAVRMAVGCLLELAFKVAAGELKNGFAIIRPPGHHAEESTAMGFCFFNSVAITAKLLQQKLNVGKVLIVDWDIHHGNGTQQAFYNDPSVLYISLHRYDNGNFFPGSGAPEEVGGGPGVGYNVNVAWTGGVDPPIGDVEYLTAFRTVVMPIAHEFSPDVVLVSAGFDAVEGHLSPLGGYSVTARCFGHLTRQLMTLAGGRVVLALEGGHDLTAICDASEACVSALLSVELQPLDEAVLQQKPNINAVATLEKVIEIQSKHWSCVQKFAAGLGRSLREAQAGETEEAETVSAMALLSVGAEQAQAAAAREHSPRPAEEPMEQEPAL
T2 sequence (P56524 627-1084 limits assumed): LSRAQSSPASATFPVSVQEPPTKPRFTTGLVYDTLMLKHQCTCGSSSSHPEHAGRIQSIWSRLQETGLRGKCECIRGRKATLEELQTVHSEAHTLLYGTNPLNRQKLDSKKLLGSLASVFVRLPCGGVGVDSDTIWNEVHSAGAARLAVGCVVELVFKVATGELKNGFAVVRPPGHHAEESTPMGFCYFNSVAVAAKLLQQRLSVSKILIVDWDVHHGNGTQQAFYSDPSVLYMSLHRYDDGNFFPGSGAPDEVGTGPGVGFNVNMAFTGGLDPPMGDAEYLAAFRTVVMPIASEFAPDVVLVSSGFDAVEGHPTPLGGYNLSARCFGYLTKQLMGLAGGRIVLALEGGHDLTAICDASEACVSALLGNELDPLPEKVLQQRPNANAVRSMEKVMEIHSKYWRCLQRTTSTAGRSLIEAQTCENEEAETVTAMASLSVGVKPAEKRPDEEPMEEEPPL
T6 sequence (Q9UKV0 604-1066 isoform Q9UKV0-5): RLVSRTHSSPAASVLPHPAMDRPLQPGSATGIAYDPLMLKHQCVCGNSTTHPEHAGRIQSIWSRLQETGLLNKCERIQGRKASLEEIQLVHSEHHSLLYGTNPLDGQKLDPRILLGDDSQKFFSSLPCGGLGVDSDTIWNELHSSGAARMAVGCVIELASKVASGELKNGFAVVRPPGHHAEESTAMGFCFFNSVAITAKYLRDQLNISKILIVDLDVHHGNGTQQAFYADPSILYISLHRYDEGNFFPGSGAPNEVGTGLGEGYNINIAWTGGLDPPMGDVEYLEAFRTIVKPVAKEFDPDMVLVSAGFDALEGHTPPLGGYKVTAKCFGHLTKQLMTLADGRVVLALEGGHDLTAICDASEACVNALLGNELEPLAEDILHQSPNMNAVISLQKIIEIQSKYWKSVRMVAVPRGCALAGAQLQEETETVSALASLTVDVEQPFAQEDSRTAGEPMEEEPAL
T1 sequence (Q13547 whole entry, canonical isoform): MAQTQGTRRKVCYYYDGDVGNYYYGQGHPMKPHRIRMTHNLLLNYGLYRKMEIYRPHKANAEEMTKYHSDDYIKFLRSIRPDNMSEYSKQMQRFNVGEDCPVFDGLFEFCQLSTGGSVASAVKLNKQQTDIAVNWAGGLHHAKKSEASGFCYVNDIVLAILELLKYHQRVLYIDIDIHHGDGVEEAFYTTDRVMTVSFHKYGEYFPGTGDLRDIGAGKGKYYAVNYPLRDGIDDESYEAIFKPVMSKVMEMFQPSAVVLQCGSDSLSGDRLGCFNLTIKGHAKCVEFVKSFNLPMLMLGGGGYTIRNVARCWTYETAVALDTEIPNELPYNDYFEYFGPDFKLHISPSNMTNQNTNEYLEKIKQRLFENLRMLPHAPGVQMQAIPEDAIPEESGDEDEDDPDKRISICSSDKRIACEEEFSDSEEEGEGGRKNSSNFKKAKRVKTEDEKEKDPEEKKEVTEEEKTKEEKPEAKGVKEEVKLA

Row | Structure (SMILES) | IC50 [1] | IC50 [2] | IC50 [3] | IC50 [4] | IC50 [5] | IC50 [6]
1 | FC(F)(F)c1cnnc(N(Cc2ccc(-c3noc(C(F)(F)F)n3)s2)c2ncccn2)c1 [Example EK, N-(Pyrimidin-2-yl)-5-(trifluoromethyl)-N-({5-[5-(trifluoromethyl)-1,2,4-oxadiazol-3-yl]thiophen-2-yl}methyl)pyridazin-3-amine] | > 10000 nM | > 10000 nM | ≤ 10000 nM | ≤ 10000 nM | > 10000 nM | > 10000 nM
2 | FC(F)(F)c1nc(-c2ccc(CN(c3cnccn3)c3ccc4nccn4n3)s2)no1 [Example DT, N-{Imidazo[1,2-b]pyridazin-6-yl}-N-({5-[5-(trifluoromethyl)-1,2,4-oxadiazol-3-yl]thiophen-2-yl}methyl)pyrazin-2-amine] | > 10000 nM | ≤ 1000 nM | ≤ 500 nM | ≤ 1000 nM | ≤ 500 nM | ≤ 1000 nM
3 | CN(C)c1cc(N(Cc2ccc(-c3noc(C(F)(F)F)n3)s2)c2cnccn2)ncn1 [Example CI, N4,N4-Dimethyl-N6-(pyrazin-2-yl)-N6-({5-[5-(trifluoromethyl)-1,2,4-oxadiazol-3-yl]thiophen-2-yl}methyl)pyrimidine-4,6-diamine] | ≤ 10000 nM | ≤ 10000 nM | ≤ 10000 nM | ≤ 10000 nM | ≤ 10000 nM | ≤ 10000 nM
4 | FC(F)(F)c1nc(-c2ccc(CN(c3cnccn3)c3ccc4nncn4n3)s2)no1 [Example DU, N-{[1,2,4]Triazolo[4,3-b]pyridazin-6-yl}-N-({5-[5-(trifluoromethyl)-1,2,4-oxadiazol-3-yl]thiophen-2-yl}methyl)pyrazin-2-amine] | > 10000 nM | ≤ 10000 nM | ≤ 10000 nM | ≤ 10000 nM | ≤ 1000 nM | ≤ 10000 nM
5 | FC(F)(F)c1cnnc(N(Cc2ccc(-c3noc(C(F)(F)F)n3)s2)c2ccncn2)c1 [Example EL, N-(Pyrimidin-4-yl)-5-(trifluoromethyl)-N-({5-[5-(trifluoromethyl)-1,2,4-oxadiazol-3-yl]thiophen-2-yl}methyl)pyridazin-3-amine] | > 10000 nM | ≤ 10000 nM | ≤ 1000 nM | ≤ 1000 nM | ≤ 10000 nM | ≤ 10000 nM
6 | FC(F)(F)c1nc(-c2ccc(CN(c3ccncc3)c3cnccn3)s2)no1 [Example AR, N-(Pyridin-4-yl)-N-({5-[5-(trifluoromethyl)-1,2,4-oxadiazol-3-yl]thiophen-2-yl}methyl)pyrazin-2-amine] | > 10000 nM | ≤ 500 nM | ≤ 500 nM | ≤ 500 nM | ≤ 500 nM | ≤ 1000 nM
7 | FC(F)(F)c1nc(-c2ccc(CN(c3cnccn3)c3nccc(N4CCCC4)n3)s2)no1 [Example AV, N-(Pyrazin-2-yl)-4-(pyrrolidin-1-yl)-N-({5-[5-(trifluoromethyl)-1,2,4-oxadiazol-3-yl]thiophen-2-yl}methyl)pyrimidin-2-amine] | > 10000 nM | ≤ 10000 nM | ≤ 10000 nM | ≤ 10000 nM | ≤ 10000 nM | ≤ 10000 nM
8 | FC(F)(F)c1cnnc(N(Cc2ccc(-c3noc(C(F)(F)F)n3)s2)c2ccncc2)c1 [Example EJ, N-(Pyridin-4-yl)-5-(trifluoromethyl)-N-({5-[5-(trifluoromethyl)-1,2,4-oxadiazol-3-yl]thiophen-2-yl}methyl)pyridazin-3-amine] | > 10000 nM | ≤ 10000 nM | ≤ 10000 nM | ≤ 10000 nM | ≤ 10000 nM | ≤ 10000 nM
9 | CC(c1ccc(-c2noc(C(F)(F)F)n2)s1)N(c1cnccn1)c1cnccn1 (stereo not drawn) [Example BB, N-(Pyrazin-2-yl)-N-(1-{5-[5-(trifluoromethyl)-1,2,4-oxadiazol-3-yl]thiophen-2-yl}ethyl)pyrazin-2-amine] | > 10000 nM | ≤ 500 nM | ≤ 500 nM | ≤ 10000 nM | ≤ 1000 nM | ≤ 10000 nM

Source: US20210038607A1, “OXADIAZOLYLTHIOPHENE DERIVATIVES USEFUL AS HISTONE DEACETYLASE INHIBITORS” (Karus Therapeutics Limited, priority 2018, published 2021)
